Experimental data published in patent US6534501B2, “Allosteric inhibitors of pyruvate kinase” (Allos Therapeutics, Inc., priority 1998, dated 2003).

How the values were obtained:
[1] = molecular target: T1, Human Erythrocyte Pyruvate Kinase (R-PK) (Homo sapiens, UniProt P30613); experiment: PK activity assay coupled with lactate dehydrogenase (NADH oxidation at 340 nm); assay type: biochemical; settings: for IC50: stock solutions in DMSO, dose-response of FIG. 6, read-out: IC50 (R-PK inhibition)
T1 construct: The four units of human whole blood obtained from the Blood Bank; from tissue
T1 sequence (P30613 whole entry): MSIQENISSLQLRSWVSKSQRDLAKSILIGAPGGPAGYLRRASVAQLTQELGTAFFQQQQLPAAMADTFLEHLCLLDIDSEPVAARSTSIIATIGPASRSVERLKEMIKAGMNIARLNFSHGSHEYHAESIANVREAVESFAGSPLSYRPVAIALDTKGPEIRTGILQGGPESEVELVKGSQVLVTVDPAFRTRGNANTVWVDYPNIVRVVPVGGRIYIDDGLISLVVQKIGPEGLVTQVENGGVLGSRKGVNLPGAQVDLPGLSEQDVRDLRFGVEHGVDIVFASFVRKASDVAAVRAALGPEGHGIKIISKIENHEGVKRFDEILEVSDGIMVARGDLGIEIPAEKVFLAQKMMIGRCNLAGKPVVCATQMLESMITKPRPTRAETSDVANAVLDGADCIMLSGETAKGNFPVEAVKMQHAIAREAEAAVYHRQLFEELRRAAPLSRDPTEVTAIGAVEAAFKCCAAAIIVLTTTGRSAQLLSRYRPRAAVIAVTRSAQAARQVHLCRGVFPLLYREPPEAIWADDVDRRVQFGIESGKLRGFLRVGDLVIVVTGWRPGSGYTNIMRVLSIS
Description: PK activity was measured using the assay conditions that are recommended by the International Committee for Standardization in Hematology (ICSH). […] The positive cooperativity of substrate binding is clearly seen from the upward curvature in the Lineweaver plot. The experimental data were fit to the Hill equation. The derived parameters were K0.5S=2.37 mM and Hill coefficient (nH) of 1.41.
Phenlyalanine has long been known as an allosteric inhibitor of PK. […] It can be seen from FIG. 2 that an increase in the concentration of phenlyalanine results in a decreased affinity and a more pronounced sigmoidity of the substrate binding. When phenylalanine increases from 0 to 30 mM, the K0.5S increases by 2.5 folds and nH increases by 1.4 folds, respectively. To avoid fluctuations in measurement of PK parameters, all experiments reported herein and assays were performed using the same batch of preparation and under identical conditions.
PK activity is measured by coupling it with lactate dehydrogenase, which transforms pyruvate into lactate and oxidizes NADH into NAD. A reduction of oxidation of NADH is followed at 340 nm using the 96 well plate in a Spectramax spectrophotometer (Molecular Devices, Ca.).
The assay buffer (100 mM Tris pH 7.5) was prepared by dissolving TRIS 100 mM, KCl 100 mM, EDTA 0.5 mM, and 10 MM MgCl2 in deionized water. The pH of the solution was adjusted to 7.5 by adding a small amount of TRIS. The stock solution of NADH (20 mM), ADP 100 mM (neutralized), LDH 500 IU/ml and PEP 100 mM were prepared in the assay buffer. The following quantities of reagents were added to make 1 ml of assay solution.
The contents were mixed and incubated for five minutes at 37° C. Then, 50 μl of PEP was added and the absorbance changes were followed at 340 nm. The initial reaction velocity in AU/min was then calculated.
The control samples in each experiment were incubated under the same conditions as without any compound. In all cases, the experiments were begun after saturation with PEP. The percent inhibition of PK activity was calculated by subtracting the activity of the control sample from the activity in the presence of compound.
Compounds 4(1) through 4(12) thus obtained were tested.
The percent activity values presented in FIG. 5 represent an average of six independent experiments. All examined compounds were prepared as stock solutions in DMSO.
As a control for FIG. 5, the assay was performed with DMSO, but no compound.
Otherwise, the dose-response for R-PK in FIG. 5 in this Example 5 was performed as described in the above Examples.

[2] = compound concentration 0.5 mM, pH 7.5, 37° C., after saturation with PEP
[3] = compound concentration 2 mM, pH 7.5, 37° C., after saturation with PEP
[4] = phenylalanine increases from 0 to 30 mM

2-(9-Ethyl-9H-carbazol-3-ylvinylideneamino)-1-(4-nitrobenzoate) [(5)]
IC50 [1]: 17.4 µM

2-phenylethyloxy-5-formylbenzoic acid [TB 32]
% PK Inhibition [1, 2]: 48% | % PK Inhibition [1, 3]: 77% | % PK Inhibition ([1]; compound concentration 3 mM, pH 7.5, 37° C., after saturation with PEP): 80%

3-(2-{1-(3-Chlorophenyl)-1(3-hydroxyphenyl)-ureido]-ethyl}-4-oxo-4H-quinazolin-3-yl)-propionic acid [(4)]
IC50 [1]: 16.1 µM

CCCCN(Cc1c2ccccc2c(Cl)c2ccccc12)C(=O)NCC(=O)OCC [(1), [3-Butyl-3-(10-chloro-anthracen-9-ylmethyl)-ureido]-acetic acid ethyl ester]
IC50 [1]: > 50 µM

Cc1cccc2nc3cccc(C(=O)Nc4ccccc4C(=O)O)c3nc12 [(2), 2-[(9-Methyl-phenazine-1-carbonyl)-amino]-benzoic acid]
IC50 [1]: 8.9 µM

O=c1oc(Nc2ccc(Cl)cc2)nc2ccccc12 [(3), 2-(4-Chloro-phenylamino)-benzo[d][1,3]oxazin-4-one]
IC50 [1]: 20.9 µM

CCc1nc2ccccc2c(=O)n1CCc1cn(COC(=O)CCl)c2ccccc12 [(6), Chloroacetic acid 3-[2-(2-ethyl-4-oxo-4H-quinazolin-3-yl)ethyl]-indol-lylmethylester]
IC50 [1]: 12.1 µM

COC(=O)c1sc(-c2ccc(Cl)cc2)cc1NCc1ccccc1 [(7), 3-Benzylamino-5-(4-chlorophenyl)-4H-1λ^4-thiophene-2-carboxylic acid methyl ester]
IC50 [1]: 16.9 µM

COC(=O)c1cc(Oc2ccc(C(=O)OC)cc2NC(=O)c2cc(Cl)cc(Cl)c2)cc(C(=O)OC)c1 [(8), 5-[2-(3,5-Dichlorobenzoylamino)-4-methoxycarbonyl-phenoxy]-isophtahlic acid dimethyl ester]
IC50 [1]: 9 µM

COC(=O)c1cc(Oc2ccc(C(=O)OC)cc2NC(=O)NC2CCCCC2)cc(C(=O)OC)c1 [(9), 5-[2-(3-Cyclohexyl-ureido)-4-methoxycarbonyl-phenoxy]-isophtahlic acid dimethyl ester]
IC50 [1]: 9.4 µM

N[C@@H](Cc1ccccc1)C(=O)O [L-Phenylalanine, reference compound]
inhibition at 10000 µM ([1]; compound concentration 10 mM, pH 7.5, 37° C., after saturation with PEP): 15% | inhibition at 30000 µM ([1]; compound concentration 30 mM, pH 7.5, 37° C., after saturation with PEP): 72% | increase of Hill coefficient nH [1, 4]: 1.4 folds | increase of K0.5S (PEP) [1, 4]: 2.5 folds

COc1ccc(OCCCCCC(=O)O)c(C=O)c1 [TB 88, 6-(2-formyl-4-methoxyphenoxy)hexanoic acid]
inhibition at 500 µM [1, 2]: 16% | inhibition at 2500 µM ([1]; compound concentration 2.5 mM, pH 7.5, 37° C., after saturation with PEP): 28%

Cc1ccc(OCCCCCC(=O)O)c(C=O)c1 [TB 154, 6-(2-formyl-4-methylphenoxy)hexanoic acid]
inhibition at 500 µM [1, 2]: 19% | inhibition at 2000 µM [1, 3]: 28% | melting point: 97 to 99 °C

CCC(CCCCC(=O)O)Oc1ccc([N+](=O)[O-])cc1C=O (stereo not shown) [TDD 57, 6-(2-formyl-4-nitrophenoxy)octanoic Acid]
inhibition at 500 µM [1, 2]: 36%
